Experimental data taken from patent US12509460B2 (Skyhawk Therapeutics, Inc., priority 2019, dated 2025).
Like-named read-outs stand apart in the source and are kept apart here.

Key:
[1] = system: SMN FL and SMN Δ7 in spinal muscular atrophy (SMA) patient fibroblasts (GM03813, Coriell); assay: Quantitative splicing assay (SMN), qPCR; type: cell-based, human; details: Homo sapiens, Fibroblast, 24 h, read-out: SMN2 Splicing FL EC50
Method: Spinal muscular atrophy (SMA) patient fibroblasts (GM03813, Coriell) are plated in 96-well plates at 50,000 cells/well. […] Treated cells are lysed and cDNA synthesized using the Fast Advanced Cells-to-Ct kit (Thermofisher A35378) according to the manufacturer's instructions. 2 μL of each cDNA are used in qPCR reactions. […] Reactions are run in a Quant Studio 6 qPCR instrument with default settings.

[2] = system: SMN protein in spinal muscular atrophy (SMA) patient fibroblasts (GM03813, Coriell); assay: SMN protein assay, Mesoscale Discovery (MSD); type: cell-based, human; details: for EC50: SMA patient fibroblasts GM03813, 48 hours, MSD, read-out: SMN2 protein EC50
Summary of the method: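 Absolute SMN levels were quantified by MSD against an SMN protein standard curve (1 μg/ml to 19.5 pg/ml) run on each plate. Samples were lysates of GM03813 patient fibroblasts (7000 cells/well) treated 48 hours with compound doses from 2.5 μM down to 0.6 nM.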

[3] = system: MDR1-MDCK cell monolayers; assay: Blood-brain-barrier (BBB) penetration potential via MDCK-MDR1 permeability assay
[4] = system: MDR1 (P-gp); assay: as above; details: dog; for Papp A→B at 120 min, 5 μM: MDCK-MDR1, pH 7.4, MDCK-MDR1: Papp A-B; for Papp B→A at 120 min, 5 μM: MDCK-MDR1, pH 7.4, MDCK-MDR1: Papp B-A
[5] = system: MDR1; assay: as above; details: dog, MDCK-MDR1, pH 7.4, MDCK-MDR1: Efflux
[6] = system: mHTT protein in GM04724 (CAG 70/20) Huntington's disease patient lymphoblast cells; assay: mHTT protein assay, 2B7-MW1 assay via Mesoscale Discovery (MSD); type: cell-based, human
Summary of the method: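 Signal from the 2B7-MW1 antibody pair on MSD, rising with polyQ length and smaller HTT fragments, measured mHTT after 48 h compound exposure (0.6 nM–10 μM) in GM04724 cells. A parallel replicate plate gave CellTiter Glo viability.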

[7] = Quantitative splicing assay (HTT), qPCR; type: cell-based, human; details: Homo sapiens, GM04724, 24 h, GM04724 lymphoblasts, read-out: HTT Splicing: E49-50 EC50
Summary of the method: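 TaqMan qPCR on cell-lysate cDNA quantifies cryptic-exon inclusion from HTT intron 49. Lymphoblasts plated at 50,000 cells/well had received compound for 24 h, 0.15 nM-2.5 uM range, 0.1% DMSO.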

[8] = SMA patient fibroblasts GM03813, 24 h, qPCR
[9] = GM04724 Huntington's disease patient lymphoblasts

COc1cnc(-c2ccc(-c3ccc(N(C)[C@@H]4C[C@H]5CCC[C@H](N5)[C@@H]4F)nn3)c(O)c2)cn1 [Compound 29A, 2-(6-(((1S,2S,3R,5R)-2-fluoro-9-azabicyclo[3.3.1]nonan-3-yl)(methyl)amino)pyridazin-3-yl)-5-(5-methoxypyrazin-2-yl)phenol]
EC50 [1, 8]: 501 to 10000 nM | EC50 [2]: 0.01 to 15 nM | MDCK-MDR1: % Recov A-B ([3]; A-B direction): 26% | MDCK-MDR1: % Recov B-A ([3]; B-A direction): 60% | Papp A→B at 120 min, 5 μM ([4]; A-B direction): 1.85 ×10⁻⁶ cm/s | Papp B→A at 120 min, 5 μM ([4]; B-A direction): 12.6 ×10⁻⁶ cm/s | efflux ratio at 120 min, 5 μM ([5]; efflux ratio): 7 | EC50 [6, 9]: 16 to 50 nM | EC50 ([7]; qPCR): 16 to 50 nM

Cc1nc2cc(-c3ccc(N(C)[C@H]4C[C@@H]5CC[C@H]([C@H]4F)N5C)nn3)c(O)cc2c(=O)n1C [Compound 105B, 7-(6-(((1R,2R,3S,5S)-2-fluoro-8-methyl-8-azabicyclo[3.2.1]octan-3-yl)(methyl)amino)pyridazin-3-yl)-6-hydroxy-2,3-dimethylquinazolin-4(3H)-one]
EC50 ([1]; SMA patient fibroblasts (GM03813)): 101 to 500 nM | SMN2 protein EC50 ([2]; SMA patient fibroblasts (GM03813), 48 hours): E (501 ≤ E ≤ 10.000) | MDCK-MDR1: % Recov A-B ([3]; A-B): 114% | MDCK-MDR1: % Recov B-A ([3]; B-A): 119% | Papp A→B at 120 min, 5 μM ([4]; A-B): 1.28 ×10⁻⁶ cm/s | Papp B→A at 120 min, 5 μM ([4]; B-A): 64.3 ×10⁻⁶ cm/s | efflux ratio at 120 min, 5 μM [5]: 50 | EC50 ([6]; GM04724 (CAG 70/20) Huntington's disease patient lymphoblasts): 16 to 50 nM | EC50 [7]: 51 to 100 nM

CN(c1ccc(-c2ccc(-n3ccnc3)cc2O)nn1)[C@@H]1C[C@H]2CC[C@H](N2)[C@@H]1F [Compound 4A, 2-(6-(((1S,2S,3R,5R)-2-fluoro-8-azabicyclo[3.2.1]octan-3-yl)(methyl)amino)pyridazin-3-yl)-5-(1H-imidazol-1-yl)phenol]
EC50 [1, 8]: 51 to 100 nM | EC50 [2]: 0.01 to 15 nM | MDCK-MDR1: % Recov A-B ([3]; A-B direction): 86% | MDCK-MDR1: % Recov B-A ([3]; B-A direction): 73% | Papp A→B at 120 min, 5 μM ([4]; A-B direction): 2.75 ×10⁻⁶ cm/s | Papp B→A at 120 min, 5 μM ([4]; B-A direction): 44.8 ×10⁻⁶ cm/s | efflux ratio at 120 min, 5 μM ([5]; efflux ratio): 16 | EC50 [6, 9]: 16 to 50 nM | EC50 ([7]; qPCR): 16 to 50 nM

CN(c1ccc(-c2ccc(-n3cnc(Cl)c3)cc2O)nn1)C1CC2CC(F)(F)C(C1)N2 (single isomer, unassigned) [Compound 37A]
EC50 [1, 8]: 16 to 50 nM | EC50 [2]: 16 to 50 nM | MDCK-MDR1: % Recov A-B ([3]; A-B direction): 52% | MDCK-MDR1: % Recov B-A ([3]; B-A direction): 69% | Papp A→B at 120 min, 5 μM ([4]; A-B direction): 17.3 ×10⁻⁶ cm/s | Papp B→A at 120 min, 5 μM ([4]; B-A direction): 34.4 ×10⁻⁶ cm/s | efflux ratio at 120 min, 5 μM ([5]; efflux ratio): 2 | EC50 [6, 9]: 16 to 50 nM | EC50 ([7]; qPCR): 0.01 to 15 nM

CN(c1ccc(-c2ccc(C#N)cc2O)nn1)[C@@H]1C[C@H]2CCC[C@H](N2)[C@@H]1F [Compound 39A, 4-(6-(((1S,2S,3R,5R)-2-fluoro-9-azabicyclo[3.3.1]nonan-3-yl)(methyl)amino)pyridazin-3-yl)-3-hydroxybenzonitrile]
EC50 [1, 8]: 16 to 50 nM | EC50 [2]: 0.01 to 15 nM | MDCK-MDR1: % Recov A-B ([3]; A-B direction): 83% | MDCK-MDR1: % Recov B-A ([3]; B-A direction): 76% | Papp A→B at 120 min, 5 μM ([4]; A-B direction): 8.1 ×10⁻⁶ cm/s | Papp B→A at 120 min, 5 μM ([4]; B-A direction): 40.5 ×10⁻⁶ cm/s | efflux ratio at 120 min, 5 μM ([5]; efflux ratio): 5 | EC50 [6, 9]: 16 to 50 nM | EC50 ([7]; qPCR): 16 to 50 nM

CN(c1ccc(-c2cc3cncnc3cc2O)nn1)[C@H]1C[C@@H]2CC[C@@H](N2)[C@H]1F [Compound 75B, 6-(6-(((1R,2R,3S,5S)-2-fluoro-8-azabicyclo[3.2.1]octan-3-yl)(methyl)amino)pyridazin-3-yl)quinazolin-7-ol]
EC50 [1, 8]: 16 to 50 nM | EC50 [2]: 16 to 50 nM | MDCK-MDR1: % Recov A-B ([3]; A-B direction): 88% | MDCK-MDR1: % Recov B-A ([3]; B-A direction): 90% | Papp A→B at 120 min, 5 μM ([4]; A-B direction): 2.44 ×10⁻⁶ cm/s | Papp B→A at 120 min, 5 μM ([4]; B-A direction): 50.5 ×10⁻⁶ cm/s | efflux ratio at 120 min, 5 μM ([5]; efflux ratio): 21 | EC50 [6, 9]: 51 to 100 nM | EC50 ([7]; qPCR): 51 to 100 nM

Cc1ccc(-c2ccc(-c3ccc(N(C)[C@H]4C[C@@H]5CC[C@@H](N5)[C@H]4F)nn3)c(O)c2)nn1 (single isomer, unassigned) [Compound 25B]
EC50 [1, 8]: 16 to 50 nM | EC50 [2]: 0.01 to 15 nM | MDCK-MDR1: % Recov A-B ([3]; A-B direction): 105% | MDCK-MDR1: % Recov B-A ([3]; B-A direction): 108% | Papp A→B at 120 min, 5 μM ([4]; A-B direction): 1.61 ×10⁻⁶ cm/s | Papp B→A at 120 min, 5 μM ([4]; B-A direction): 46.8 ×10⁻⁶ cm/s | efflux ratio at 120 min, 5 μM ([5]; efflux ratio): 29 | EC50 [6, 9]: 16 to 50 nM | EC50 ([7]; qPCR): 16 to 50 nM

CN(c1ccc(-c2ccc(-c3ccn(C)n3)cc2O)nn1)[C@H]1C[C@@H]2CC[C@@H](N2)[C@H]1F (single isomer, unassigned) [Compound 36B]
EC50 [1, 8]: 0.01 to 15 nM | EC50 [2]: 0.01 to 15 nM | MDCK-MDR1: % Recov A-B ([3]; A-B direction): 72% | MDCK-MDR1: % Recov B-A ([3]; B-A direction): 79% | Papp A→B at 120 min, 5 μM ([4]; A-B direction): 5.87 ×10⁻⁶ cm/s | Papp B→A at 120 min, 5 μM ([4]; B-A direction): 41.8 ×10⁻⁶ cm/s | efflux ratio at 120 min, 5 μM ([5]; efflux ratio): 7 | EC50 [6, 9]: 0.01 to 15 nM | EC50 ([7]; qPCR): 0.01 to 15 nM

CN(c1ccc(-c2cc3c(=O)n(C)ccc3cc2O)nn1)[C@H]1C[C@@H]2CC[C@@H](N2)[C@H]1F [Compound 83B, 7-(6-(((1R,2R,3S,5S)-2-fluoro-8-azabicyclo[3.2.1]octan-3-yl)(methyl)amino)pyridazin-3-yl)-6-hydroxy-2-methylisoquinolin-1(2H)-one]
EC50 [1, 8]: 0.01 to 15 nM | EC50 [2]: 0.01 to 15 nM | MDCK-MDR1: % Recov A-B ([3]; A-B direction): 77% | MDCK-MDR1: % Recov B-A ([3]; B-A direction): 72% | Papp A→B at 120 min, 5 μM ([4]; A-B direction): 1.43 ×10⁻⁶ cm/s | Papp B→A at 120 min, 5 μM ([4]; B-A direction): 44.4 ×10⁻⁶ cm/s | efflux ratio at 120 min, 5 μM ([5]; efflux ratio): 31 | EC50 [6, 9]: 0.01 to 15 nM | EC50 ([7]; qPCR): 0.01 to 15 nM

CN(c1ccc(-c2cc3ccncc3cc2O)nn1)[C@@H]1C[C@H]2CC[C@H](N2)[C@@H]1F (single isomer, unassigned) [Compound 87A]
EC50 [1, 8]: 101 to 500 nM | EC50 [2]: 0.01 to 15 nM | MDCK-MDR1: % Recov A-B ([3]; A-B direction): 59% | MDCK-MDR1: % Recov B-A ([3]; B-A direction): 79% | Papp A→B at 120 min, 5 μM ([4]; A-B direction): 5.33 ×10⁻⁶ cm/s | Papp B→A at 120 min, 5 μM ([4]; B-A direction): 43.1 ×10⁻⁶ cm/s | efflux ratio at 120 min, 5 μM ([5]; efflux ratio): 8 | EC50 [6, 9]: 51 to 100 nM | EC50 ([7]; qPCR): 51 to 100 nM

CN(c1ccc(-c2ccc(-n3ccnc3)cc2O)nn1)[C@H]1C[C@@H]2CCC[C@@H](N2)[C@H]1F [Compound 11B, 2-(6-(((1R,2R,3S,5S)-2-fluoro-9-azabicyclo[3.3.1]nonan-3-yl)(methyl)amino)pyridazin-3-yl)-5-(1H-imidazol-1-yl)phenol]
EC50 [1, 8]: 0.01 to 15 nM | EC50 [2]: 16 to 50 nM | MDCK-MDR1: % Recov A-B ([3]; A-B direction): 77% | MDCK-MDR1: % Recov B-A ([3]; B-A direction): 89% | Papp A→B at 120 min, 5 μM ([4]; A-B direction): 2.4 ×10⁻⁶ cm/s | Papp B→A at 120 min, 5 μM ([4]; B-A direction): 55 ×10⁻⁶ cm/s | efflux ratio at 120 min, 5 μM ([5]; efflux ratio): 23 | EC50 [6, 9]: 0.01 to 15 nM | EC50 ([7]; qPCR): 0.01 to 15 nM

Cc1cc(=O)c2cc(O)c(-c3ccc(N(C)[C@H]4C[C@@H]5CC[C@@H](N5)[C@H]4F)nn3)cc2o1 [Compound 49B, 7-(6-(((1R,2R,3S,5S)-2-fluoro-8-azabicyclo[3.2.1]octan-3-yl)(methyl)amino)pyridazin-3-yl)-6-hydroxy-2-methyl-4H-chromen-4-one]
EC50 [1, 8]: 0.01 to 15 nM | EC50 [2]: 0.01 to 15 nM | MDCK-MDR1: % Recov A-B ([3]; A-B direction): 86% | MDCK-MDR1: % Recov B-A ([3]; B-A direction): 91% | Papp A→B at 120 min, 5 μM ([4]; A-B direction): 0.86 ×10⁻⁶ cm/s | Papp B→A at 120 min, 5 μM ([4]; B-A direction): 32.9 ×10⁻⁶ cm/s | efflux ratio at 120 min, 5 μM ([5]; efflux ratio): 38 | EC50 [6, 9]: 0.01 to 15 nM | EC50 ([7]; qPCR): 0.01 to 15 nM
